From patent publication US9012443B2 (Amgen Inc., priority 2011, dated 2015) come the findings set out here.

For experiment [1], the target named is T1, Nav 1.7 (Homo sapiens (Human), UniProt Q15858). The experiment in a line: Nav 1.7 in vitro PX assay (PatchXpress whole cell voltage clamp). Particulars: 293 cells, human Nav1.7, partially inactivated state; read-out: Nav1.7 PX IC50 IP. In kind it is cell-based. Put shortly: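 Partially inactivated channel state (holding potential for 20–50% inactivation) probed in human Nav1.7-transfected 293 cells by automated patch clamp, test pulse −10 mV for 20 msec.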

Experiment [2] concerns the target T1, Nav 1.7. Description: Nav 1.7 IWQ in vitro assay (IonWorks Quattro population patch-clamp). Particulars: 293 cells stably transfected with Nav 1.7; second part of table; read-out: Nav1.7 IWQ IC50 IP. The class given is cell-based. Put shortly:
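Percent block, measured in duplicate, came from peak minus end-of-pulse current on the 26th −20 mV step, and IC50 was fitted against concentration. Stably transfected 293 cells were recorded in population patch-clamp mode before and after a single test concentration, which was added over 3–8 min while cells were unclamped.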

By IC50 is commonly meant the concentration that gives 50% inhibition.

T1 sequence (Q15858 whole entry): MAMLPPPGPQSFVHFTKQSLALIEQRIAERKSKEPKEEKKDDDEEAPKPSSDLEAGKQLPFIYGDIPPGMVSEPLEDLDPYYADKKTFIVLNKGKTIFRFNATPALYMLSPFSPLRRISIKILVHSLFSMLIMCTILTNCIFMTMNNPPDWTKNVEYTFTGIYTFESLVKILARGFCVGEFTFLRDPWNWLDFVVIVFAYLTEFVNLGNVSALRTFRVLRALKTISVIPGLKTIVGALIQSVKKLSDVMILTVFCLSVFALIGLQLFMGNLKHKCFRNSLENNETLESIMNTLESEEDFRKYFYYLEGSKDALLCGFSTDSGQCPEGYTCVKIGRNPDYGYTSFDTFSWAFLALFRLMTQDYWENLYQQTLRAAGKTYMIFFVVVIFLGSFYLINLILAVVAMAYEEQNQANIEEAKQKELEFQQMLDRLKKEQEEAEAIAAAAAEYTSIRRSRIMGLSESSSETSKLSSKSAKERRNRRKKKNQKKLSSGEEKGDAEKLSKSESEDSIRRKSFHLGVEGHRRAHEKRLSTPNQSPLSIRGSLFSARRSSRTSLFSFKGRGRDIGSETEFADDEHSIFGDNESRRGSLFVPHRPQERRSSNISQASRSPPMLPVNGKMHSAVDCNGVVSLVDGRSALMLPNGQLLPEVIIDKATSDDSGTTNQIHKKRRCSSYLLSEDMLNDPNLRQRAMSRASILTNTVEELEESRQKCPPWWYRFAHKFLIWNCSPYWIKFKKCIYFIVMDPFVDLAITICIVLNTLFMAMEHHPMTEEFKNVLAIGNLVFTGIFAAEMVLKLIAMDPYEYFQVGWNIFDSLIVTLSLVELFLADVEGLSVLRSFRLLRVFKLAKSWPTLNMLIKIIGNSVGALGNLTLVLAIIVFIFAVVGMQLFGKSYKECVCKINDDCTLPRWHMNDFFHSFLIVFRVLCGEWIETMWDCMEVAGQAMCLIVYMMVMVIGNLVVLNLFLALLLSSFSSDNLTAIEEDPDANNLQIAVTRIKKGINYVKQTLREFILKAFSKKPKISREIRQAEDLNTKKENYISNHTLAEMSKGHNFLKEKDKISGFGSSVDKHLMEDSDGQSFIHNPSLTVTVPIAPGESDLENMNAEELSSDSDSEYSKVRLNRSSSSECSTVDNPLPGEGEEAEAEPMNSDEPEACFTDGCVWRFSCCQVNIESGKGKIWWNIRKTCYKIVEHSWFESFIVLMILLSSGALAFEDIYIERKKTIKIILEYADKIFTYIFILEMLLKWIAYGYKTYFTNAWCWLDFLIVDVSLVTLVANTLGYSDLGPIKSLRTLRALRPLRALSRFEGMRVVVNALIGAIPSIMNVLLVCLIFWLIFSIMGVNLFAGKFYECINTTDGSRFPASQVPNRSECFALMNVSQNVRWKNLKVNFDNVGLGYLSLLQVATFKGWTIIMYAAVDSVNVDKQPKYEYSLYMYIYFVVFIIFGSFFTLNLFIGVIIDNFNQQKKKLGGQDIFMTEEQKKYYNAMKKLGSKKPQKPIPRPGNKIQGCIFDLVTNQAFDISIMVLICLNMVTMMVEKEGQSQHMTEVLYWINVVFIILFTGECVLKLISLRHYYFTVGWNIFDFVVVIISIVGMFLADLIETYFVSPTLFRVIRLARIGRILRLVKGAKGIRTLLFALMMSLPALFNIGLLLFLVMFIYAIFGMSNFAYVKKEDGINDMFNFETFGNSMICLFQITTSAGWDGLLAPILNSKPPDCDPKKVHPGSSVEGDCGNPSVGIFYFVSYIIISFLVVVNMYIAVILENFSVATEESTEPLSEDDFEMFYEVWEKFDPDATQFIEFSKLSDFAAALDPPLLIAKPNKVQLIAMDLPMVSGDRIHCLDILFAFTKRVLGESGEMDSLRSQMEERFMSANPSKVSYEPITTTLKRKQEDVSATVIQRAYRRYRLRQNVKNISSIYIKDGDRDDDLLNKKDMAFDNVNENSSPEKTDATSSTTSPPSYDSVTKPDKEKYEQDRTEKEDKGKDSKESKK

As to `COc1cc(-c2cnn(C)c2)ccc1-c1nccc2cc(S(=O)(=O)Nc3nccs3)ccc12` [Example 203, 1-(2-METHOXY-4-(1-METHYL-1H-PYRAZOL-4-YL)PHENYL)-N-(THIAZOL-2-YL)ISOQUINOLINE-6-SULFONAMIDE], the IC50 on Nav 1.7 [1] came out at 3.29 µM; at Nav 1.7 [2], 0.31 µM.
Consider `COc1cc(-c2cccnc2)ccc1-c1nccc2cc(S(=O)(=O)Nc3nccs3)ccc12` [Example 204, 1-(2-METHOXY-4-(PYRIDIN-3-YL)PHENYL)-N-(THIAZOL-2-YL)ISOQUINOLINE-6-SULFONAMIDE], for which the IC50 amounted to 0.614 µM on Nav 1.7 [1] and 0.03 µM on Nav 1.7 [2].
As to `COc1cc(C#N)ccc1-c1nccc2cc(S(=O)(=O)Nc3nccs3)ccc12` [Example 205, 1-(4-CYANO-2-METHOXYPHENYL)-N-(THIAZOL-2-YL)ISOQUINOLINE-6-SULFONAMIDE], the values for the IC50 on Nav 1.7 [1] and on Nav 1.7 [2] were 0.47 µM and 0.02 µM, respectively.
Turning to `COc1cc(C#N)ccc1-c1nccc2cc(S(=O)(=O)Nc3ccncn3)ccc12` [Example 206, 1-(4-CYANO-2-METHOXYPHENYL)-N-(PYRIMIDIN-4-YL)ISOQUINOLINE-6-SULFONAMIDE], the IC50 was determined as 4.42 µM on Nav 1.7 [1] and 0.11 µM on Nav 1.7 [2].
For the compound `O=S(=O)(Nc1nccs1)c1ccc2c(-c3ccn(-c4ccccc4)c3)nccc2c1` [Example 207, 1-(1-PHENYL-1H-PYRROL-3-YL)-N-(THIAZOL-2-YL)ISOQUINOLINE-6-SULFONAMIDE 2,2,2-TRIFLUOROACETATE], the half-inhibitory concentration (IC50) on Nav 1.7 [1] amounted to 7.29 µM; on Nav 1.7 [2] it was 2.1 µM.
On the same counts, the results for `Cc1c(-c2nccc3cc(S(=O)(=O)Nc4nccs4)ccc23)cnn1-c1ccccc1` [Example 208, 1-(5-METHYL-1-PHENYL-1H-PYRAZOL-4-YL)-N-(THIAZOL-2-YL)ISOQUINOLINE-6-SULFONAMIDE 2,2,2-TRIFLUOROACETATE] are 27.5 µM and 2.14 µM.
For the compound `Cc1cc(Cl)ccc1-c1nccc2cc(S(=O)(=O)Nc3nccs3)ccc12` [Example 209, 1-(4-CHLORO-2-METHYLPHENYL)-N-(THIAZOL-2-YL)ISOQUINOLINE-6-SULFONAMIDE 2,2,2-TRIFLUOROACETATE], the IC50 on Nav 1.7 [1] amounted to 0.385 µM; at Nav 1.7 [2], 0.06 µM.
On the same counts, the results for `Cc1cc(C#N)ccc1-c1nccc2cc(S(=O)(=O)Nc3nccs3)ccc12` [Example 210, 1-(4-CYANO-2-METHYLPHENYL)-N-(THIAZOL-2-YL)ISOQUINOLINE-6-SULFONAMIDE 2,2,2-TRIFLUOROACETATE] are 0.888 µM and 0.14 µM.
Regarding `COc1ccccc1-c1ncc(F)c2cc(S(=O)(=O)Nc3nccs3)ccc12` [Example 211, 4-FLUORO-1-(2-METHOXYPHENYL)-N-(THIAZOL-2-YL)ISOQUINOLINE-6-SULFONAMIDE], the half-maximal inhibitory concentration (IC50) on Nav 1.7 [1] turned out to be 0.251 µM; at Nav 1.7 [2], 0.01 µM.
Take `COc1cc(C(F)(F)F)ccc1-c1ncc(F)c2cc(S(=O)(=O)Nc3nccs3)ccc12` [Example 212, 4-FLUORO-1-(2-METHOXY-4-(TRIFLUOROMETHYL)PHENYL)-N-(THIAZOL-2-YL)ISOQUINOLINE-6-SULFONAMIDE]: the values for the IC50 at Nav 1.7 [1] and at Nav 1.7 [2] were 0.269 µM and 0.03 µM, respectively.
As for `COc1cc(F)ccc1-c1ncc(F)c2cc(S(=O)(=O)Nc3nccs3)ccc12` [Example 213, 4-FLUORO-1-(4-FLUORO-2-METHOXYPHENYL)-N-(THIAZOL-2-YL)ISOQUINOLINE-6-SULFONAMIDE], the 50% inhibitory concentration (IC50) at Nav 1.7 [1] was 0.36 µM; at Nav 1.7 [2] it was 0.01 µM.
For `COc1cc(C#N)ccc1-c1ncc(F)c2cc(S(=O)(=O)Nc3nccs3)ccc12` [Example 214, 1-(4-CYANO-2-METHOXYPHENYL)-4-FLUORO-N-(THIAZOL-2-YL)ISOQUINOLINE-6-SULFONAMIDE] the same measures were 0.211 µM and 0.02 µM.
For `COc1cc(Cl)ccc1-c1ncc(F)c2cc(S(=O)(=O)Nc3nccs3)ccc12` [Example 215, 1-(4-CHLORO-2-METHOXYPHENYL)-4-FLUORO-N-(THIAZOL-2-YL)ISOQUINOLINE-6-SULFONAMIDE] the same measures were 0.086 µM and 0.02 µM.
